Results reported in ChEMBL document CHEMBL5241072, “Overview of piperlongumine analogues and their therapeutic potential” (Eur J Med Chem, 2021).

How the values were obtained:
Oryctolagus cuniculus [1] = species on record: Oryctolagus cuniculus; assay: Antiplatelet activity in rabbit plasma assessed as inhibition of arachidonic acid induced platelet aggregation by microplate reader analysis; format: functional
Oryctolagus cuniculus [2] = species on record: Oryctolagus cuniculus; assay: Antiplatelet activity in rabbit plasma assessed as inhibition of ADP induced platelet aggregation by microplate reader analysis; format: functional
Hepatitis B virus [3] = assay: Antiviral activity against HBV infected in human HepG2.2.15 cells assessed as reduction in extracellular HBV DNA level; format: functional, organism-based
Hepatitis B virus [4] = assay: Antiviral activity against HBV infected in human HepG2.2.15 cells assessed as reduction in intracellular HBV DNA level; format: functional, organism-based
20S proteasome = assay: Inhibition of human 20S proteasome; format: protein-complex assay
NCI-H1703 = assay: Antiproliferative activity against human NCI-H1703 cells assessed as cell growth inhibition; format: functional, cell-based
HeLa = assay: Antiproliferative activity against human HeLa cells assessed as cell growth inhibition; format: functional, cell-based
Oryctolagus cuniculus [5] = species on record: Oryctolagus cuniculus; assay: Antiplatelet activity in rabbit plasma assessed as inhibition of arachidonic acid induced platelet aggregation at 150 uM by aggregometer analysis relative to control; format: functional; design: scale not given: the % may be the effect or the level left
A549 = assay: Antiproliferative activity against human A549 cells assessed as cell growth inhibition; format: functional, cell-based
KB = assay: Antiproliferative activity against human KB cells assessed as cell growth inhibition; format: functional
P388 = assay: Antiproliferative activity against mouse P388 cells assessed as cell growth inhibition; format: functional, cell-based
HL-60 [6] = assay: Antiproliferative activity against human HL-60 cells assessed as cell growth inhibition; format: functional, cell-based
CCRF-CEM = assay: Antiproliferative activity against human CEM cells assessed as cell growth inhibition; format: functional, cell-based
K562 = assay: Antiproliferative activity against human K562 cells assessed as cell growth inhibition; format: functional, cell-based
Jurkat = assay: Antiproliferative activity against human Jurkat cells assessed as cell growth inhibition; format: functional, cell-based
MOLT-4 = assay: Antiproliferative activity against human MOLT-4 cells assessed as cell growth inhibition; format: functional, cell-based
HT-29 = assay: Antiproliferative activity against human HT-29 cells assessed as cell growth inhibition; format: functional, cell-based
HCT-8 [7] = assay: Antiproliferative activity against human HCT-8 cells assessed as cell growth inhibition; format: functional, cell-based
HCT-116 = assay: Antiproliferative activity against human HCT-116 cells assessed as cell growth inhibition; format: functional, cell-based
MCF7 = assay: Antiproliferative activity against human MCF7 cells assessed as cell growth inhibition; format: functional, cell-based
MDA-MB-231 [8] = assay: Antiproliferative activity against human MDA-MB-231 cells assessed as cell growth inhibition; format: functional, cell-based
LN-229 = assay: Antiproliferative activity against human LN-229 cells assessed as cell growth inhibition; format: functional, cell-based
[9] = Antiproliferative activity against human U87 cells assessed as cell growth inhibition; format: functional, cell-based, U-87MG ATCC; details: U-87 MG
8-MG-BA = assay: Antiproliferative activity against human 8-MG-BA cells assessed as cell growth inhibition; format: functional, cell-based
DU-145 = assay: Antiproliferative activity against human DU-145 cells assessed as cell growth inhibition; format: functional, cell-based
PC-3 = assay: Antiproliferative activity against human PC-3 cells assessed as cell growth inhibition; format: functional, cell-based
[10] = Antiproliferative activity against human NCI-H660 cells assessed as cell growth inhibition; format: functional, cell-based
[11] = Antiproliferative activity against human OC2 cells assessed as cell growth inhibition; format: functional, cell-based
[12] = Antiproliferative activity against human OCSL cell assessed as cell growth inhibition; format: functional, cell-based
MKN-45 = assay: Antiproliferative activity against human MKN-45 cells assessed as cell growth inhibition; format: functional, cell-based
AGS = assay: Antiproliferative activity against human AGS cells assessed as cell growth inhibition; format: functional, cell-based
A-375 = assay: Antiproliferative activity against human A-375 cells assessed as cell growth inhibition; format: functional, cell-based
[13] = Antiproliferative activity against human A875 cells assessed as cell growth inhibition; format: functional, cell-based
NSCLC = assay: Cytotoxicity against human NSCLC cells assessed as cell growth inhibition; format: functional, cell-based
[14] = Inhibition of TrxR in human MDA-MB-231 cells; format: cell-based
HGC-27 [15] = assay: Antiproliferative activity against human HGC-27 cells assessed as cell growth inhibition; format: functional, cell-based
[16] = Inhibition of TrxR in human HGC-27 cells; format: cell-based
HGC-27 [17] = assay: Potency index, ratio of piperlongumine IC50 to compound IC50 for inhibition of TrxR in human HGC-27 cells; format: cell-based
HGC-27 [18] = assay: Potency index, ratio of piperlongumine IC50 to compound IC50 for antiproliferative activity against human HGC-27 cells; format: functional
HL-60 [19] = assay: Antiproliferative activity against human HL-60 cells assessed as cell growth inhibition in presence of piperlongumine; format: functional, cell-based
HCT-8 [20] = assay: Antiproliferative activity against human HCT-8 cells assessed as cell growth inhibition in presence of piperlongumine; format: functional, cell-based
MDA-MB-435 [21] = assay: Antiproliferative activity against human MDA-MB-435 cells assessed as cell growth inhibition; format: functional, cell-based
MDA-MB-435 [22] = assay: Antiproliferative activity against human MDA-MB-435 cells assessed as cell growth inhibition in presence of piperlongumine; format: functional, cell-based
SF-295 [23] = assay: Antiproliferative activity against human SF-295 cells assessed as cell growth inhibition; format: functional, cell-based
SF-295 [24] = assay: Antiproliferative activity against human SF-295 cells assessed as cell growth inhibition in presence of piperlongumine; format: functional, cell-based
PC-12 = assay: Neuroprotective activity against H2O2-induced cytotoxicity in rat PC-12 cells assessed as cell survival rate preincubated for 24 hrs followed by H2O2 stimulation and measured after 24 hrs by MTT assay relative to control; format: functional; details: time 48 hrs
[25] = Cytotoxicity against mouse RAW264.7 cells assessed as cell growth inhibition; format: toxicity, cell-based
MDA-MB-231 [26] = assay: Antitumor activity against BALB/c mouse xenografted with human MDA-MB-231 cells assessed as tumor growth inhibition at 25 mg/kg, ip measured after 21 days relative to control; format: functional; details: MDA-MB-231, 504 h, time 21 day, read-out: TGI
MDA-MB-231 [27] = assay: Potency index, ratio of piperlongumine IC50 to compound IC50 for inhibition of TrxR in human MDA-MB-231 cells; format: cell-based

In the case of `O=C1C=CCCN1C(=O)/C=C/c1ccc2ccccc2n1`, the IC50 (Oryctolagus cuniculus [1]) is reported as 0.13 µM and the IC50 (Oryctolagus cuniculus [2]) is reported as 403 µM.
`CC(=O)Nc1ccc(-c2cc(C)c(=O)n(Cc3ccc(Cl)cc3)n2)cc1` showed an IC50 (Hepatitis B virus [3]) of 1.5 µM and an IC50 (Hepatitis B virus [4]) of 3 µM.
`C=CC(=O)NC(=O)/C=C/c1cc(OC)c(OC)c(OC)c1` showed an IC50 (20S proteasome) of 2.6 µM.
`COc1cc(/C=C/C(=O)N2CCC=C(C#CC3CC3)C2=O)cc(OC)c1OC` gave an IC50 (NCI-H1703) of 0.7 µM and an IC50 (HeLa) of 1.3 µM.
Work on `O=C(/C=C/c1cnccn1)N1CCC=C(Cl)C1=O` yielded an Activity (Oryctolagus cuniculus [5]) of 100%.
Compound `COc1cc(/C=C/C(=O)N2CCC=CC2=O)cc(OC)c1OC` [PIPLARTINE] has an IC50 (20S proteasome) of 15 µM, an Activity (Oryctolagus cuniculus [5]) of 76.4% and an IC50 (Oryctolagus cuniculus [1]) of 20.8 µM. It also gave an IC50 (Oryctolagus cuniculus [2]) of 6710 µM, an IC50 (A549) of 10.2 µM and an IC50 (KB) of 5.6 µM. It also gave an IC50 (P388) of 2.8 µM, an IC50 (HL-60 [6]) of 5.3 µM and an IC50 (CCRF-CEM) of 4.4 µM. It also gave an IC50 (K562) of 5.7 µM, an IC50 (Jurkat) of 5.3 µM and an IC50 (MOLT-4) of 1.7 µM. The IC50 (HT-29) was 1.4 µM, the IC50 (HCT-8 [7]) was 2.2 µM and the IC50 (HCT-116) was 13.9 µM. The IC50 (MCF7) was 25 µM, the IC50 (MDA-MB-231 [8]) was 1.72 µM and the IC50 (LN-229) was 10 µM. It also gave an IC50 [9] of 10 µM, an IC50 (8-MG-BA) of 10 µM and an IC50 (DU-145) of 3.4 µM. The IC50 (PC-3) was 4.9 µM, the IC50 [10] was 0.4 µM and the IC50 [11] was 7.4 µM. For the same compound, the IC50 [12] was 11.3 µM, the IC50 (MKN-45) was 20 µM and the IC50 (AGS) was 20 µM. It also gave an IC50 (A-375) of 2.5 µM, an IC50 [13] of 2.5 µM and an IC50 (NSCLC) of 9.2 µM. It also gave an IC50 [14] of 1.52 µM and an IC50 (HGC-27 [15]) of 7.53 µM.
For `COCCOCCOc1ccc(/C=C2\CCC=CC2=O)cc1OC`, the IC50 [16] was 0.15 µM, the IC50 (HGC-27 [15]) was 0.76 µM and the Ratio IC50 (HGC-27 [17]) was 12. The “Ratio IC50” value (HGC-27 [18]) was 10.
In the case of `O=c1[nH]cc(F)c(=O)[nH]1` [FLUOROURACIL], the IC50 (HL-60 [6]) is reported as 84.7 µM, the IC50 (HCT-8 [7]) is reported as 11.2 µM and the IC50 (HL-60 [19]) is reported as 38.1 µM. The IC50 (HCT-8 [20]) was 4.7 µM, the IC50 (MDA-MB-435 [21]) was 9.19 µM and the IC50 (MDA-MB-435 [22]) was 1.95 µM. It also gave an IC50 (SF-295 [23]) of 2.33 µM and an IC50 (SF-295 [24]) of 0.49 µM.
With `COc1cc(/C=C/C(=O)N2CCC=C(Cl)C2=O)cc(OC)c1OC` the IC50 (A549) was 4.14 µM.
With `COc1cc(OC)c(/C=C2\CC/C(=C\c3cc(OC)c(OC)c(OC)c3)C2=O)c(OC)c1` the Survival (PC-12) was 80%.
`COc1cc(/C=C/C(=O)C2CCC=CC2=O)cc(OC)c1OC` (configuration not stated) gave an IC50 [25] of 6 µM.
In the case of `COc1cc(/C=C2\CN(C=O)C/C(=C\c3cc(OC)c(OC)c(OC)c3)C2=O)cc(OC)c1OC`, the IC50 (NSCLC) is reported as 0.6 µM.
`O=C1C=CCC/C1=C\c1ccc(Oc2ccc(/C=C3\CCC=CC3=O)cc2)cc1` gave an IC50 (MDA-MB-231 [8]) of 0.63 µM, an IC50 [14] of 0.16 µM and an inhibition in vivo at 25 mg/kg (MDA-MB-231 [26]) of 67%. The Ratio IC50 (MDA-MB-231 [27]) was 10.
With `O=C(/C=C/c1ccc2ccccc2n1)N1CCC=C(Cl)C1=O` the IC50 (Oryctolagus cuniculus [1]) was 0.108 µM and the IC50 (Oryctolagus cuniculus [2]) was 3140 µM.
